Laboratory results published in PMC5496578 (Beilstein Journal of Organic Chemistry, 2017).
Like-named read-outs stand apart in the source and are kept apart here.

Assays:
human placental 17β-HSD1 [1] = target: T1, human placental 17β-HSD1 (Homo sapiens, UniProt P14061); assay: in vitro radiosubstrate incubation, 17β-HSD1 inhibition (estrone to 17β-estradiol conversion); type: biochemical; settings: for remaining activity at 10 µM: read-out: Relative conversion ± SD
T1 sequence (P14061 1-328): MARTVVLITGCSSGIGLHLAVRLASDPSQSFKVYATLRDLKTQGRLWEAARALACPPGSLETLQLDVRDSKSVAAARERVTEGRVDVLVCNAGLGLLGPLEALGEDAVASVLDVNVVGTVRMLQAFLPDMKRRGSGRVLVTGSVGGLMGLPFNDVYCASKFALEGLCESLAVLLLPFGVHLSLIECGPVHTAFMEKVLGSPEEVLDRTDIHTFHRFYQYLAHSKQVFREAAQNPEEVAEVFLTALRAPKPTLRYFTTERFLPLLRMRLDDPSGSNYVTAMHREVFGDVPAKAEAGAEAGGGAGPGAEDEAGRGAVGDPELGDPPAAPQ
Protocol: Determination of 17β-HSD1 inhibition
The inhibitory effects exerted on 17β-HSD1 activity by the newly synthesized conjugates were determined via an in vitro radiosubstrate incubation method described in detail earlier.[1]
Radiolabeled Chemicals (St. Louis, MO, USA).
NADPH cofactor, other chemicals and solvents of analytical grade purity were purchased from Sigma (St. Louis, MO, USA) and Fluka (Buchs, Switzerland).
Kieselgel-G TLC layers (Si 254 F, 0.25 mm thick) were obtained from Merck (Darmstadt, Germany). Human term placenta specimens were collected and used with the ethical approval of the Institutional Human Investigation Review Board.
Human term placenta specimens were combined and homogenized with an Ultra-Turrax in 0.1 M HEPES buffer (pH 7.3) containing 1 mM EDTA and 1 mM dithiotreitol, and the cytosol was obtained by fractionated centrifugation. The substrate tritium- […]
propylene glycol in HEPES buffer solution, whereas the test compounds were applied in 10 µl of dimethyl sulfoxide solution. (These organic solvent contents in the 200 µl […]
activity substantially.) Cofactor NADPH was used in excess concentration (100 µM).
The enzymatic reaction was started by the addition of the cytosol aliquots. Incubation was carried out at 37 °C for 2.5 min and was then stopped by the addition of ethyl […]
were added to the samples. The two steroids were separated by TLC with the solvent system dichloromethane/diisopropyl ether/ethyl acetate (70:15:15 v/v) and UV spots were used to trace the separated steroids. Spots were cut out and the radioactivity of […]
counting. Test compounds were applied at 10 µM and their inhibitory effects were expressed by relative conversions, in comparison with the transformation measured in the noninhibited control incubation. Two measurements were performed for each test compound and the mean was calculated. The IC50 values (the inhibitor concentration which decreases the enzyme activity to 50%) were determined for the […]
In these cases, conversions were measured at different concentrations in the interval 0.001–50 µM. IC50 results were calculated by using unweighted iterative least-squares logistic curve-fitting by means of the “absolute IC50 calculation” function of GraphPad Prism 4.0. The IC50 of unlabeled […]
1 Bacsa, I.; Jójárt, R.; Schneider, G.; Wölfling, J.; Maróti, P.; Herman, B. E.; Szécsi,
2 Szabó, J.; Jerkovics N.; Schneider G.; Wölfling J.; Bózsity N.; Minorics R.; Zupkó I.;

human placental 17β-HSD1 [2] = target: T1, human placental 17β-HSD1; parameters: method as in PMID 26476182, PMID 27424610; settings: precursors marked with asterisk; cited from earlier work

| Compound | remaining activity at 10 µM (human placental 17β-HSD1 [1]) [%] | further results |
| --- | --- | --- |
| COc1ccc2c(c1C#Cc1ccc(C(F)(F)F)cc1)CC[C@@H]1[C@@H]2CC[C@@]2(C)C(=O)CC[C@@H]12 [Compound 11e] | 79 ± 3 | – |
| COc1ccc(CCc2cc3c(cc2O)CC[C@@H]2[C@@H]3CC[C@@]3(C)C(=O)CC[C@@H]23)cc1 [Compound 16] | – | IC50 (human placental 17β-HSD1 [1]): 470 nM |
| COc1ccc(CCc2c(OC)ccc3c2CC[C@@H]2[C@@H]3CC[C@@]3(C)C(=O)CC[C@@H]23)cc1 [Compound 19] | 94 ± 1 | – |
| Cc1ccc(C#Cc2c(O)ccc3c2CC[C@@H]2[C@@H]3CC[C@@]3(C)C(=O)CC[C@@H]23)cc1 [Compound 10b] | 89 ± 0.4 | – |
| COc1ccc2c(c1C#Cc1ccccc1)CC[C@@H]1[C@@H]2CC[C@@]2(C)C(=O)CC[C@@H]12 [Compound 11a] | 92 ± 12 | – |
| Cc1ccc(C#Cc2cc3c(cc2O)CC[C@@H]2[C@@H]3CC[C@@]3(C)C(=O)CC[C@@H]23)cc1 [Compound 8b] | – | IC50 (human placental 17β-HSD1 [1]): 1400 nM |
| C[C@@]12CC[C@@H]3c4ccc(O)c(C#Cc5ccc(F)cc5)c4CC[C@H]3[C@@H]1CCC2=O [Compound 10d] | 96 ± 7 | – |
| COc1ccc(-c2cc3cc4c(cc3o2)CC[C@@H]2[C@@H]4CC[C@@]3(C)C(=O)CC[C@@H]23)cc1 [Compound 12] | 92 ± 2 | – |
| COc1ccc(C#Cc2c(O)ccc3c2CC[C@@H]2[C@@H]3CC[C@@]3(C)C(=O)CC[C@@H]23)cc1 [Compound 10c] | 91 ± 2 | – |
| COc1cc2c(cc1C#Cc1ccc(F)cc1)[C@H]1CC[C@@]3(C)C(=O)CC[C@H]3[C@@H]1CC2 [Compound 9d] | 94 ± 5 | – |
| C[C@@]12CC[C@@H]3c4cc(C#Cc5ccc(C(F)(F)F)cc5)c(O)cc4CC[C@H]3[C@@H]1CCC2=O [Compound 8e] | – | IC50 (human placental 17β-HSD1 [1]): 930 nM |
| COc1cc2c(cc1C#Cc1ccc(C)cc1)[C@H]1CC[C@@]3(C)C(=O)CC[C@H]3[C@@H]1CC2 [Compound 9b] | 84 ± 5 | – |
| COc1cc2c(cc1I)[C@H]1CC[C@@]3(C)C(=O)CC[C@H]3[C@@H]1CC2 [Compound 4] | – | IC50 (human placental 17β-HSD1 [2]): > 10000 nM |
| COc1cc2c(cc1C#Cc1ccc(C(F)(F)F)cc1)[C@H]1CC[C@@]3(C)C(=O)CC[C@H]3[C@@H]1CC2 [Compound 9e] | 76 ± 1 | – |
| COc1ccc2c(c1C#Cc1ccc(C)cc1)CC[C@@H]1[C@@H]2CC[C@@]2(C)C(=O)CC[C@@H]12 [Compound 11b] | 52 ± 12 | – |
| COc1ccc(/C=C/c2c(OC)ccc3c2CC[C@@H]2[C@@H]3CC[C@@]3(C)C(=O)CC[C@@H]23)cc1 [Compound 15] | 80 ± 12 | – |
| COc1ccc(C#Cc2cc3c(cc2O)CC[C@@H]2[C@@H]3CC[C@@]3(C)C(=O)CC[C@@H]23)cc1 [Compound 8c] | – | IC50 (human placental 17β-HSD1 [1]): 230 nM |
| COc1ccc(C#Cc2c(OC)ccc3c2CC[C@@H]2[C@@H]3CC[C@@]3(C)C(=O)CC[C@@H]23)cc1 [Compound 11c] | 83 ± 8 | – |
| C[C@@]12CC[C@@H]3c4cc(C#Cc5ccccc5)c(O)cc4CC[C@H]3[C@@H]1CCC2=O [Compound 8a] | – | IC50 (human placental 17β-HSD1 [1]): 150 nM |
| COc1ccc(/C=C\c2cc3c(cc2OC)CC[C@@H]2[C@@H]3CC[C@@]3(C)C(=O)CC[C@@H]23)cc1 [Compound 13] | 70 ± 6 | – |
| COc1ccc2c(c1C#Cc1ccc(F)cc1)CC[C@@H]1[C@@H]2CC[C@@]2(C)C(=O)CC[C@@H]12 [Compound 11d] | 83 ± 1 | – |
| C[C@@]12CC[C@@H]3c4ccc(O)c(C#Cc5ccccc5)c4CC[C@H]3[C@@H]1CCC2=O [Compound 10a] | 92 ± 15 | – |
| COc1ccc(C#Cc2cc3c(cc2OC)CC[C@@H]2[C@@H]3CC[C@@]3(C)C(=O)CC[C@@H]23)cc1 [Compound 9c] | 85 ± 1 | – |
| C[C@@]12CC[C@@H]3c4ccc(O)c(C#Cc5ccc(C(F)(F)F)cc5)c4CC[C@H]3[C@@H]1CCC2=O [Compound 10e] | 85 ± 1 | – |
| C[C@@]12CC[C@@H]3c4cc(C#Cc5ccc(F)cc5)c(O)cc4CC[C@H]3[C@@H]1CCC2=O [Compound 8d] | – | IC50 (human placental 17β-HSD1 [1]): 300 nM |
| COc1ccc(CCc2cc3c(cc2OC)CC[C@@H]2[C@@H]3CC[C@@]3(C)C(=O)CC[C@@H]23)cc1 [Compound 17] | 63 ± 8 | – |
| COc1cc2c(cc1C#Cc1ccccc1)[C@H]1CC[C@@]3(C)C(=O)CC[C@H]3[C@@H]1CC2 [Compound 9a] | 88 ± 12 | – |
| COc1ccc(CCc2c(O)ccc3c2CC[C@@H]2[C@@H]3CC[C@@]3(C)C(=O)CC[C@@H]23)cc1 [Compound 18] | 98 ± 3 | – |
| COc1ccc(-c2cc3c4c(ccc3o2)[C@H]2CC[C@@]3(C)C(=O)CC[C@H]3[C@@H]2CC4)cc1 [Compound 14] | 102 ± 6 | – |
| COc1ccc2c(c1I)CC[C@@H]1[C@@H]2CC[C@@]2(C)C(=O)CC[C@@H]12 [Compound 6] | – | IC50 (human placental 17β-HSD1 [2]): 560 nM |
